Laboratory results reported in patent US12065654B2, “Plants having increased tolerance to herbicides” (BASF SE, priority 2014, dated 2024).

What was measured:
Type in all cases: biochemical
Arabidopsis HPPD F381I = target: T1, Arabidopsis HPPD F381I (Arabidopsis thaliana, UniProt P93836, F381I); settings: Arabidopsis HPPD variant F381I; normalized on wild-type;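 further: reaction started with 4-HPP at 0.05 mM after 30 min preincubation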
T1 construct: His6 (N); made in house; host or cells: E. coli BL21 (DE3)
Experimental: (§1) The activity assay for HPPD is based on the analysis of homogentisic acid by reversed phase HPLC.
(§2) The assay mixture can contain 150 mM potassium phosphate buffer pH 7.0, 50 mM L-ascorbic acid, 100 μM Catalase (Sigma-Aldrich), 1 μM FeSO4 and 0.2 units of purified HPPD enzyme in a total volume of 505 μl. 1 unit is defined as the amount of enzyme that is required to produce 1 nmol of HGA per minute at 20° C.
(§3) The reaction is allowed to proceed for 45 min at room temperature. The reaction is stopped by the addition of 50 μl of 4.5 M phosphoric acid. The sample is filtered using a […] pore size PVDF filtration device. 5 μl of the cleared sample is analyzed on an UPLC HSS T3 column (particle size 1.8 μm, dimensions 2, 1×50 mm; Waters) by isocratic elution using 90% 20 mM NaH2PO4 pH 2.2, 10% methanol (v/v).
(§4) HGA is detected electrochemically at 750 mV (mode: DC; polarity: positive) and quantified by integrating peak areas (Empower software; Waters).
(§5) Inhibitors are dissolved in DMSO (dimethylsulfoxide) to a concentration of 0.5 mM. From this stock solution serial five-fold dilutions are prepared in DMSO, which are used in the assay. The respective inhibitor solution accounts for 1% of the assay volume. Thus, final inhibitor concentrations range from 5 μM to 320 pM, respectively. Activities are normalized by setting the uninhibited enzyme activity to 100%. IC50 values are calculated using non-linear regression.
(§6) Purified, mutant HPPD enzymes are obtained by the methods described above. Dose response and kinetic measurements are carried out using the described HPPD activity assay. Apparent michaelis constants (Km) and maximal reaction velocities (Vmax) are calculated by non-linear regression with the software GraphPad Prism 5 (GraphPad Software, La Jolla, USA) using a substrate inhibition model. […] Weighted means (by standard error) of K. and IC50 values are calculated from at least three independent experiments. The Cheng-Prusoff equation for competitive inhibition (Cheng, Y. C.; Prusoff, W. H. Biochem Pharmacol 1973, 22, 3099-3108) is used to calculate dissociation constants (Ki).
(§7) Field performance of the optimized HPPD enzyme, which is used as a herbicide tolerance trait may depend not only on its lack of sensitivity towards HPPD inhibiting herbicides but also on its activity. To assess the potential performance of a herbicide tolerance trait a tolerance index (TI) is calculated using the following formula: […]
(§8) Easy comparison and ranking of each trait is enabled by normalizing tolerance indexes on the respective wild-type HPPD.

Arabidopsis HPPD F381L = target: T2, Arabidopsis HPPD F381L (Arabidopsis thaliana, UniProt P93836, F381L); settings: Arabidopsis HPPD variant F381L; normalized on wild-type
T2 construct: His6 (N); made in house; host or cells: E. coli BL21 (DE3)
Experimental: as §1, §2, §3, §4, §5, §6, §7, §8

[1] = target: T3, Arabidopsis HPPD M335H, P336A (Arabidopsis thaliana, UniProt P93836, M335H/P336A); settings: Arabidopsis HPPD variant M335H, normalized on wild-type;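 further: reaction started with 4-HPP at 0.05 mM after 30 min preincubation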
T3 construct: His6 (N); made in house; host or cells: E. coli BL21 (DE3)
Experimental: as §1, §2, §3, §4, §5, §6, §7, §8

[2] = target: T4, Arabidopsis HPPD M335H, P336A, E363Q (Arabidopsis thaliana, UniProt P93836, E363Q/M335H/P336A); settings: Arabidopsis HPPD variant M335H, normalized on wild-type;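 further: reaction started with 4-HPP at 0.05 mM after 30 min preincubation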
T4 construct: His6 (N); made in house; host or cells: E. coli BL21 (DE3)
Experimental: as §1, §2, §3, §4, §5, §6, §7, §8

[3] = target: T5, Arabidopsis HPPD M335H, P336G (Arabidopsis thaliana, UniProt P93836, M335H/P336G); settings: Arabidopsis HPPD variant M335H, normalized on wild-type
T5 construct: His6 (N); made in house; host or cells: E. coli BL21 (DE3)
Experimental: as §1, §2, §3, §4, §5, §6, §7, §8

[4] = target: T6, Arabidopsis HPPD M335H, P336G, E363Q (Arabidopsis thaliana, UniProt P93836, E363Q/M335H/P336G); settings: Arabidopsis HPPD variant M335H, normalized on wild-type
T6 construct: His6 (N); made in house; host or cells: E. coli BL21 (DE3)
Experimental: as §1, §2, §3, §4, §5, §6, §7, §8

Hordeum HPPD L320N = target: T7, Hordeum HPPD L320N (Hordeum vulgare, UniProt O48604, A164G/L320N/R146V/R147D/R148G); assay: HPPD activity assay, mutant; settings: Hordeum HPPD variant L320N; normalized on wild-type;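 further: reaction started with 4-HPP at 0.05 mM after 30 min preincubation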
T7 construct: His-tag (N); made in house; host or cells: E. coli BL21 (DE3)
Experimental: as §1, §2, §3, §4, §5, §6, §7, §8

Hordeum HPPD L334E = target: T8, Hordeum HPPD L334E (Hordeum vulgare, UniProt O48604, A164G/L334E/R146V/R147D/R148G); assay: HPPD activity assay, mutant; settings: Hordeum HPPD variant L334E; normalized on wild-type;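 further: reaction started with 4-HPP at 0.05 mM after 30 min preincubation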
T8 construct: His-tag (N); made in house; host or cells: E. coli BL21 (DE3)
Experimental: as §1, §2, §3, §4, §5, §6, §7, §8

[5] = target: T9, Hordeum HPPD L353M, P321R, L320N (Hordeum vulgare, UniProt O48604, L320N/L353M/P321R); assay: HPPD activity assay, mutant; settings: Hordeum HPPD variant L353M, normalized on wild-type
T9 construct: His-tag (N); made in house; host or cells: E. coli BL21 (DE3)
Experimental: as §1, §2, §3, §4, §5, §6, §7, §8

Hordeum HPPD R309K = target: T10, Hordeum HPPD R309K (Hordeum vulgare, UniProt O48604, A164G/R146V/R147D/R148G/R309K); assay: HPPD activity assay, mutant; settings: Hordeum HPPD variant R309K; normalized on wild-type
T10 construct: subcloned into a modified pET24D (Novagen) expression vector resulting in N-terminally His-tagged expression constructs; His tag (N); made in house; host or cells: E. coli BL21 (DE3)
Experimental: as §1, §2, §3, §4, §5, §6, §7, §8

[6] = target: T11, Hordeum HPPD (SEQ ID NO:2) (Hordeum vulgare, UniProt O48604, A164G/R146V/R147D/R148G); assay: HPPD activity assay; settings: HPPD enzyme Hordeum
T11 construct: His-tag (N); made in house; host or cells: E. coli BL21 (DE3)
T11 sequence (O48604 whole entry R146V/R147D/R148G/A164G): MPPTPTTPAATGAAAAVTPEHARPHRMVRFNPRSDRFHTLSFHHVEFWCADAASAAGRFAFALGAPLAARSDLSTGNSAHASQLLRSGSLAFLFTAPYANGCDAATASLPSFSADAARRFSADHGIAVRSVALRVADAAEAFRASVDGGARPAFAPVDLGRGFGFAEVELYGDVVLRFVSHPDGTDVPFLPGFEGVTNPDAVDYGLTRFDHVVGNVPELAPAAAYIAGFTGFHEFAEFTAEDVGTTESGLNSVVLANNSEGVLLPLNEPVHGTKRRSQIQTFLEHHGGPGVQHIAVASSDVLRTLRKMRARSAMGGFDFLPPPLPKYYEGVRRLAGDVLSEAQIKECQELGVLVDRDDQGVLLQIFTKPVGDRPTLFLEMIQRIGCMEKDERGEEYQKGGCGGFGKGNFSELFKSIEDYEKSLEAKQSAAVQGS

T2 sequence (P93836 whole entry F381L): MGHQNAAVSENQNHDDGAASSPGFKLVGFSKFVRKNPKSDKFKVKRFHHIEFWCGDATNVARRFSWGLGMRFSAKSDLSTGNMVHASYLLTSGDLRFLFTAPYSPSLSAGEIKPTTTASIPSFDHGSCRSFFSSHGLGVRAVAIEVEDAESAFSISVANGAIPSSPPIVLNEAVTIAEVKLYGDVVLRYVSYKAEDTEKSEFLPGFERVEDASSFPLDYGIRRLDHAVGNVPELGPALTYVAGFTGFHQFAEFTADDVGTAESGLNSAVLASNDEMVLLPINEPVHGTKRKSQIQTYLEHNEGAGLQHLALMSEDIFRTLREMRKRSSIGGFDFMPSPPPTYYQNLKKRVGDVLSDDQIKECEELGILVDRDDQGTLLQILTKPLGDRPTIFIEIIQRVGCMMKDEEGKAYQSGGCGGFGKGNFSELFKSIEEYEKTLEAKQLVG
T4 sequence (P93836 whole entry M335H/P336A/E363Q): as the sequence (P93836 whole entry F381L) above, with M335H, P336A, E363Q, L381F counted along it
T8 sequence (O48604 whole entry R146V/R147D/R148G/A164G/L334E): as the sequence (O48604 whole entry R146V/R147D/R148G/A164G) above, with L334E counted along it
T1 sequence (P93836 whole entry F381I): as the sequence (P93836 whole entry F381L) above, with L381I counted along it
T3 sequence (P93836 whole entry M335H/P336A): as the sequence (P93836 whole entry F381L) above, with M335H, P336A, L381F counted along it
T9 sequence (O48604 whole entry R146V/R147D/R148G/A164G/L320N/P321R/L353M): as the sequence (O48604 whole entry R146V/R147D/R148G/A164G) above, with L320N, P321R, L353M counted along it
T6 sequence (P93836 whole entry M335H/P336G/E363Q): as the sequence (P93836 whole entry F381L) above, with M335H, P336G, E363Q, L381F counted along it
T7 sequence (O48604 whole entry R146V/R147D/R148G/A164G/L320N): as the sequence (O48604 whole entry R146V/R147D/R148G/A164G) above, with L320N counted along it
T5 sequence (P93836 whole entry M335H/P336G): as the sequence (P93836 whole entry F381L) above, with M335H, P336G, L381F counted along it
T10 sequence (O48604 whole entry R146V/R147D/R148G/A164G/R309K): as the sequence (O48604 whole entry R146V/R147D/R148G/A164G) above, with R309K counted along it

SMILES	Normalized tolerance index (TI) (Arabidopsis HPPD F381I)	Normalized tolerance index (TI) (Arabidopsis HPPD F381L)	Normalized tolerance index (TI) [1]	Normalized tolerance index (TI) [2]	Normalized tolerance index (TI) [3]	Normalized tolerance index (TI) [4]	Normalized tolerance index (TI) (Hordeum HPPD L320N)	Normalized tolerance index (TI) (Hordeum HPPD L334E)	Normalized tolerance index (TI) [5]	Normalized tolerance index (TI) (Hordeum HPPD R309K)	TI normalized to Arabidopsis HPPD [6]
Cc1c(C(=O)c2cnn(C)c2O)ccc(S(C)(=O)=O)c1C1=NOCC1 [Inhibitor 1, [3-(4,5-dihydroisoxazol-3-yl)-2-methyl-4-methylsulfonyl-phenyl]-(5-hydroxy-1-methyl-pyrazol-4-yl)methanone]	10.8	11	3.4	6.4	5	3	1.3	3.6	2.6	1.5	3.7
CS(=O)(=O)c1ccc(C(=O)C2C(=O)CCCC2=O)c([N+](=O)[O-])c1 [Inhibitor 2, 2-(4-methylsulfonyl-2-nitro-benzoyl)cyclohexane-1,3-dione]	0.1	0.1	0.1	0.3	0.1	0.1	0.3	4	0.4	1.3	0.9
COCCOCc1nc(C(F)(F)F)ccc1C(=O)C1=C(O)C2CCC(C2)C1=O (centres unmarked) [Inhibitor 3, 2-hydroxy-3-[2-(2-methoxyethoxymethyl)-6-(trifluoromethyl)pyridine-3-carbonyl]bicyclo[3.2.1]oct-2-en-4-one]	0.1	0.1	0.1	0.5	0.3	0.1	1.2	1.2	0.6	2.5	0.2
CS(=O)(=O)c1ccc(C(=O)C2C(=O)CCCC2=O)c(Cl)c1COCC(F)(F)F [Inhibitor 4, 2-[2-chloro-4-methylsulfonyl-3-(2,2,2-trifluoroethoxymethyl)benzoyl]cyclohexane-1,3-dione]	0.1	0.1	0.1	0.3	0.2	0.1	1.5	2.1	2.2	4.6	0.1
